This is an account of results in patent US10202360B2 (CELGENE QUANTICEL RESEARCH, INC., priority 2016, dated 2019).

The assay deals with CREBBP (Homo sapiens (Human), UniProt Q92793). Put plainly: In vitro enzyme inhibition assay - CREBBP inhibition (AlphaScreen, biotinylated H4-tetraacetyl peptide). In kind it is binding. The following applies: Table 28; AlphaScreen, H4-tetraacetyl peptide. An outline of the steps: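 His-tagged CREBBP expressed in E. coli (50 nM final) incubated with biotinylated H4K5/8/12/16(Ac) peptide (20 nM final) in HEPES pH 7.3 buffer, 0.4% DMSO, 20 min at room temperature.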

A value given as a limit tells only on which side of the number the result lay.

Sequence of CREBBP (Q92793 1081-1197): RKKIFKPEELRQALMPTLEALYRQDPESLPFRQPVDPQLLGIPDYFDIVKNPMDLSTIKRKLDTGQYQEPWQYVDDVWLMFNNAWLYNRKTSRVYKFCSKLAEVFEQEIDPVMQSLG

With `CCCCS(=O)(=O)Nc1nc(Oc2c(F)cccc2F)nc(-c2cc(C)c(=O)n(C)c2)n1` [Example 189, Butane-1-sulfonic acid [4-(2,6-difluoro-phenoxy)-6-(1,5-dimethyl-6-oxo-1,6-dihydro-pyridin-3-yl)-[1,3,5]triazin-2-yl]-amide], the IC50 was < 500 nM.

As for `CCCCS(=O)(=O)Nc1nc(Oc2c(F)cccc2Cl)nc(-c2cc(C)c(=O)n(C)c2)n1` [Example 190, Butane-1-sulfonic acid [4-(2-chloro-6-fluoro-phenoxy)-6-(1,5-dimethyl-6-oxo-1,6-dihydro-pyridin-3-yl)-[1,3,5]triazin-2-yl]-amide], the IC50 was < 500 nM.

In the case of `CCS(=O)(=O)Nc1cc(-c2cc(C)c(=O)n(C)c2)nc(-c2ccccc2)n1` [Example 191, Ethanesulfonic acid [6-(1,5-dimethyl-6-oxo-1,6-dihydro-pyridin-3-yl)-2-phenyl-pyrimidin-4-yl]-amide], the IC50 lay in the range of 500 to 5000 nM.

Turning to `CCS(=O)(=O)Nc1cc(-c2cc(C)c(=O)n(C)c2)nc(-c2ccccc2C)n1` [Example 192, Ethanesulfonic acid [6-(1,5-dimethyl-6-oxo-1,6-dihydro-pyridin-3-yl)-2-o-tolyl-pyrimidin-4-yl]-amide], the concentration for half-maximal inhibition (IC50) is < 500 nM.

With `CCS(=O)(=O)Nc1cc(-c2cc(C)c(=O)n(C)c2)nc(-c2ccccc2OC)n1` [Example 193, Ethanesulfonic acid [6-(1,5-dimethyl-6-oxo-1,6-dihydro-pyridin-3-yl)-2-(2-methoxy-phenyl)-pyrimidin-4-yl]-amide], the IC50 is < 500 nM.

The compound `CCS(=O)(=O)Nc1cc(-c2ccc(=O)n(C)c2)nc(-c2ccc(C)cc2OC)n1` [Example 194, Ethanesulfonic acid [2-(2-methoxy-4-methyl-phenyl)-6-(1-methyl-6-oxo-1,6-dihydro-pyridin-3-yl)-pyrimidin-4-yl]-amide] yielded an IC50 of 500 to 5000 nM.

In the case of `CCS(=O)(=O)Nc1cc(-c2ccc(=O)n(C)c2)nc(-c2cc(C)ccc2OC)n1` [Example 195, Ethanesulfonic acid [2-(2-methoxy-5-methyl-phenyl)-6-(1-methyl-6-oxo-1,6-dihydro-pyridin-3-yl)-pyrimidin-4-yl]-amide], the IC50 fell in the range of 500 to 5000 nM.

For the compound `CCCS(=O)(=O)Nc1cc(-c2ccc(=O)n(C)c2)nc(-c2ccccc2OC)n1` [Example 196, Propane-1-sulfonic acid [2-(2-methoxy-phenyl)-6-(1-methyl-6-oxo-1,6-dihydro-pyridin-3-yl)-pyrimidin-4-yl]-amide], the IC50 was 500 to 5000 nM.

Regarding `CCCCS(=O)(=O)Nc1cc(-c2ccc(=O)n(C)c2)nc(-c2ccccc2OC)n1` [Example 197, Butane-1-sulfonic acid [2-(2-methoxy-phenyl)-6-(1-methyl-6-oxo-1,6-dihydro-pyridin-3-yl)-pyrimidin-4-yl]-amide], the IC50 is < 500 nM.

As for `CCS(=O)(=O)Nc1cc(-c2ccc(=O)n(C)c2)nc(-c2ccccc2C#N)n1` [Example 198, Ethanesulfonic acid [2-(2-cyano-phenyl)-6-(1-methyl-6-oxo-1,6-dihydro-pyridin-3-yl)-pyrimidin-4-yl]-amide], the IC50 was < 500 nM.

Compound `CCS(=O)(=O)Nc1cc(-c2ccc(=O)n(C)c2)nc(-c2ccccc2OC)n1` [Example 199, Ethanesulfonic acid [2-(2-methoxy-phenyl)-6-(1-methyl-6-oxo-1,6-dihydro-pyridin-3-yl)-pyrimidin-4-yl]-amide] had a concentration for half-maximal inhibition (IC50) of 500 to 5000 nM.

Compound `CCS(=O)(=O)Nc1nc(OC(C)C)nc(-c2ccc(=O)n(C)c2)n1` [Example 200, Ethanesulfonic acid [4-isopropoxy-6-(1-methyl-6-oxo-1,6-dihydro-pyridin-3-yl)-[1,3,5]triazin-2-yl]-amide] gave an IC50 of 500 to 5000 nM.

`CCCS(=O)(=O)Nc1nc(OC(C)C)nc(-c2ccc(=O)n(C)c2)n1` [Example 201, Propane-1-sulfonic acid [4-isopropoxy-6-(1-methyl-6-oxo-1,6-dihydro-pyridin-3-yl)-[1,3,5]triazin-2-yl]-amide] returned an IC50 of 500 to 5000 nM.

`CC[C@H](C)S(=O)(=O)Nc1cc(-c2ccc(=O)n(C)c2)nc(Oc2c(C)cccc2F)n1` [Example 202, (S)-N-(2-(2-fluoro-6-methylphenoxy)-6-(1-methyl-6-oxo-1,6-dihydropyridin-3-yl)pyrimidin-4-yl)butane-2-sulfonamide]: the IC50 was < 500 nM.

For `CC[C@@H](C)S(=O)(=O)Nc1cc(-c2ccc(=O)n(C)c2)nc(Oc2c(C)cccc2F)n1` [Example 203, (R)-N-(2-(2-fluoro-6-methylphenoxy)-6-(1-methyl-6-oxo-1,6-dihydropyridin-3-yl)pyrimidin-4-yl)butane-2-sulfonamide], the IC50 was < 500 nM.

`CC[C@@H](C)S(=O)(=O)Nc1cc(-c2ccc(=O)n(C)c2)nc(Oc2c(C)cccc2Cl)n1` [Example 204, Butane-(2R)-sulfonic acid [2-(2-chloro-6-methyl-phenoxy)-6-(1-methyl-6-oxo-1,6-dihydro-pyridin-3-yl)-pyrimidin-4-yl]-amide]: the IC50 is < 500 nM.

Consider `CC[C@H](C)S(=O)(=O)Nc1cc(-c2ccc(=O)n(C)c2)nc(Oc2c(C)cccc2Cl)n1` [Example 205, Butane-(2S)-sulfonic acid [2-(2-chloro-6-mehtyl-phenoxy)-6-(1-methyl-6-oxo-1,6-dihydro-pyridin-3-yl)-pyrimidin-4-yl]-amide], for which the IC50 is < 500 nM.

With `CC[C@H](C)S(=O)(=O)Nc1cc(-c2ccc(=O)n(C)c2)nc(Oc2c(F)cccc2Cl)n1` [Example 206, Butane-(2S)-sulfonic acid [2-(2-chloro-6-fluoro-phenoxy)-6-(1-methyl-6-oxo-1,6-dihydro-pyridin-3-yl)-pyrimidin-4-yl]-amide], the concentration for half-maximal inhibition (IC50) is < 500 nM.

As to `CC[C@@H](C)S(=O)(=O)Nc1cc(-c2ccc(=O)n(C)c2)nc(Oc2c(F)cccc2Cl)n1` [Example 207, Butane-(2R)-sulfonic acid [2-(2-chloro-6-fluoro-phenoxy)-6-(1-methyl-6-oxo-1,6-dihydro-pyridin-3-yl)-pyrimidin-4-yl]-amide], the concentration for half-maximal inhibition (IC50) is < 500 nM.

As to `CC[C@@H](C)S(=O)(=O)Nc1cc(-c2ccc(=O)n(C)c2)nc(Oc2c(F)cccc2OC)n1` [Example 208, Butane-(2R)-sulfonic acid [2-(2-fluoro-6-methoxy-phenoxy)-6-(1-methyl-6-oxo-1,6-dihydro-pyridin-3-yl)-pyrimidin-4-yl]-amide], the half-maximal inhibitory concentration (IC50) is < 500 nM.

Regarding `CC[C@H](C)S(=O)(=O)Nc1cc(-c2ccc(=O)n(C)c2)nc(Oc2c(F)cccc2OC)n1` [Example 209, Butane-(2S)-sulfonic acid [2-(2-fluoro-6-methoxy-phenoxy)-6-(1-methyl-6-oxo-1,6-dihydro-pyridin-3-yl)-pyrimidin-4-yl]-amide], the 50% inhibitory concentration (IC50) was < 500 nM.

Consider `CC[C@@H](C)S(=O)(=O)Nc1cc(-c2ccc(=O)n(C)c2)nc(Oc2c(F)cccc2C2CC2)n1` [Example 210, Butane-(2R)-sulfonic acid [2-(2-cyclopropyl-6-fluoro-phenoxy)-6-(1-methyl-6-oxo-1,6-dihydro-pyridin-3-yl)-pyrimidin-4-yl]-amide], for which the 50% inhibitory concentration (IC50) was < 500 nM.

As to `CC[C@H](C)S(=O)(=O)Nc1cc(-c2ccc(=O)n(C)c2)nc(Oc2c(C)cccc2C2CC2)n1` [Example 211, Butane-(2S)-sulfonic acid [2-(2-cylcopropyl-6-methyl-phenoxy)-6-(1-methyl-6-oxo-1,6-dihydro-pyridin-3-yl)-pyrimidin-4-yl]-amide], the half-maximal inhibitory concentration (IC50) is < 500 nM.

Take `CC[C@@H](C)S(=O)(=O)Nc1cc(-c2ccc(=O)n(C)c2)nc(Oc2c(C)ccc(F)c2F)n1` [Example 212, (2R)-Butane-2-sulfonic acid [2-(2,3-difluoro-6-methyl-phenoxy)-6-(1-methyl-6-oxo-1,6-dihydro-pyridin-3-yl)-pyrimidin-4-yl]-amide]: the half-maximal inhibitory concentration (IC50) was < 500 nM.

Regarding `CC[C@H](C)S(=O)(=O)Nc1cc(-c2ccc(=O)n(C)c2)nc(Oc2c(C)ccc(F)c2F)n1` [Example 213, (2S)-Butane-2-sulfonic acid [2-(2,3-difluoro-6-methyl-phenoxy)-6-(1-methyl-6-oxo-1,6-dihydro-pyridin-3-yl)-pyrimidin-4-yl]-amide], the IC50 was < 500 nM.

Consider `CCc1cccc(F)c1Oc1nc(NS(=O)(=O)[C@H](C)CC)cc(-c2ccc(=O)n(C)c2)n1` [Example 214, (2R)-Butane-2-sulfonic acid [2-(2-ethyl-6-fluoro-phenoxy)-6-(1-methyl-6-oxo-1,6-dihydro-pyridin-3-yl)-pyrimidin-4-yl]-amide], for which the IC50 is < 500 nM.

Consider `CCc1cccc(F)c1Oc1nc(NS(=O)(=O)[C@@H](C)CC)cc(-c2ccc(=O)n(C)c2)n1` [Example 215, (2S)-Butane-2-sulfonic acid [2-(2-ethyl-6-fluoro-phenoxy)-6-(1-methyl-6-oxo-1,6-dihydro-pyridin-3-yl)-pyrimidin-4-yl]-amide], for which the IC50 was < 500 nM.

As for `CCC[C@H](C)S(=O)(=O)Nc1cc(-c2ccc(=O)n(C)c2)nc(Oc2c(C)cccc2F)n1` [Example 216, (2S)-Pentane-2-sulfonic acid [2-(2-fluoro-6-methyl-phenoxy)-6-(1-methyl-6-oxo-1,6-dihydro-pyridin-3-yl)-pyrimidin-4-yl]-amide], the IC50 is < 500 nM.

Consider `CCC[C@H](C)S(=O)(=O)Nc1cc(-c2ccc(=O)n(C)c2)nc(Oc2c(C)cccc2Cl)n1` [Example 217, (2S)-Pentane-2-sulfonic acid [2-(2-chloro-6-methyl-phenoxy)-6-(1-methyl-6-oxo-1,6-dihydro-pyridin-3-yl)-pyrimidin-4-yl]-amide], for which the IC50 is < 500 nM.

Regarding `CCC[C@H](C)S(=O)(=O)Nc1cc(-c2ccc(=O)n(C)c2)nc(Oc2c(F)cccc2Cl)n1` [Example 218, (2S)-Pentane-2-sulfonic acid [2-(2-chloro-6-fluoro-phenoxy)-6-(1-methyl-6-oxo-1,6-dihydro-pyridin-3-yl)-pyrimidin-4-yl]-amide], the IC50 is < 500 nM.

For orientation: IC50 means the point on the concentration scale where inhibition reaches its midpoint. A high value points to weaker potency.
